Assay results: patent US20250257077A1, “BRIDGED BICYCLIC HETEROCYCLOALKYL PYRIDO-[3,4-d]PYRIDAZINE AMINE DERIVATIVES USEFUL AS NLRP3 INHIBITORS” (Ventus Therapeutics U.S., Inc., priority 2022, published 2025)
Values after ≈ are worked out from the molar mass of the structure shown. Where two headings read alike, the source gives them in different places.

Assays:
[1] = Mouse Hepatocyte Stability Assay; format: in vitro ADME; settings: mouse hepatocytes, 37° C.; read-out: Hep (mouse) (t½ min)
Description: (§1) (v) Mouse and Human Hepatocyte Stability Assays
(§2) A hepatocyte stability assay is a laboratory-based method used to determine the metabolic stability of a compound in hepatocytes (liver cells). This assay provides valuable information about how quickly a drug is metabolized in the liver and can be used to assess its potential effectiveness and safety in drug discovery.
(§3) In the assay, cither human or mouse hepatocytes are incubated with the test compound at a controlled temperature of 37° C., for different time periods (e.g., 5, 15, 30, 60, and 120 minutes). At each time point during the incubation, samples are taken, the reaction is terminated, and the amount of test compound remaining analyzed using LC-MS/MS to monitor the disappearance of the test compound over time (Gradient). […] See, e.g., Coe et al., Methods in Pharmacology & Toxicology (2008) 151.

human NLRP3 = molecular target: T1, human NLRP3 (Homo sapiens, UniProt Q96P20); assay: Human Whole Blood (hWB) NLRP3 Assay; format: cell-based; settings: LPS priming, ATP activation, IL-1β levels
T1 construct: Human whole blood is drawn from healthy volunteers after obtaining written informed consent; from tissue
Description: (ii) Human Whole Blood (hWB) NLRP3 Assay
Human whole blood is drawn from healthy volunteers after obtaining written informed consent. Heparin lithium coated tubes are used to collect blood from volunteers. Blood samples are distributed on 96 well plates using 90 μl per well. Priming is performed by adding 5 μl of LPS (026: B6; Sigma L-2654) at a final concentration of 1 μg/ml for 4.5 hours in a humidified incubator with 37° C. 5% CO2. Thirty minutes prior to NLRP3 activation, 5 μl of a 20× compound solution or vehicle (2% dimethylsulfoxide (DMSO)) is added to each well and plates were incubated on a shaker (450 rpm) in a humidified incubator with 37° C., 5% CO2. Activation is then performed by adding 3.3 μl of a 31× ATP solution per well. At the end of the 30 minutes stimulation, the plates are centrifuged (800 g, 10 min, room temperature) and the plasma from each well is frozen at −80° C. IL-1β levels in the supernatant were analyzed using a mesoscale discovery assay (MSD K151TUK) according to the manufacturers’ instructions.

[2] = Brain Levels (Kp and Kpu,u); format: in vivo, CDI mice; settings: for Kp at 24 h: mice dosed at 20 mpk PO, whole brain AUC over 24 h divided by plasma AUC
Description: (iv) Brain Levels (Kp and Kpu,u)—NLRP3
The in vivo total brain to plasma ratio was assessed in CDI mice after oral administration of the compound. Blood was collected at several timepoints up to 24 h, and transferred into plastic micro centrifuge tubes with EDTA-K2 as anticoagulant. Blood samples were centrifuged at 4000 g for 5 minutes at 4° C., to obtain plasma, then immediately frozen and stored at −75±15° C., prior to analysis. Animals were terminally anaesthetized with a rising concentration of CO2 gas at about 1 minute. At selected timepoints, whole brains were removed from the skull, rinsed in cold PBS to remove blood, dried with clean gauze, then frozen in liquid nitrogen and kept at −75±15° C. before analysis. At the time of analysis, brain samples were homogenized with PBS by tissue weight (g) to PBS volume (mL) ratio 1:3.
Plasma and brain drug levels were quantified by LC/MS/MS on an AB Sciex Triple Quad 5500+instrument, after separation on a HALO 160 A ES-C18, 2.7 μm 2.1×50 mm column. Quantitation was performed using a calibration curve prepared in blank plasma or blank brain homogenate. The software WinNonlin (Phoenix™) was used for pharmacokinetic analysis from the concentrations versus time data, including the AUCinf and AUClast. The Kp ratio (total brain concentration over total plasma concentration) was calculated as (AUCtot,br)/(AUCtot,pl).
The unbound brain exposure was assessed as Kpuu, which is the free brain/free plasma concentration ratio (Cu,bt/Cu,pl). The Cu,br/Cu,pl ratios were obtained from in vivo total brain to plasma ratios (Ctot,br/Ctot,pl) by using in vitro determined Fu,br and Fu,pl.
Plasma protein binding and brain homogenate protein binding were measured by equilibrium dialysis in a HTDialysis plate. The dialysis membranes were soaked in ultrapure water for 60 minutes to separate strips, then in 20% ethanol for 20 minutes, finally in dialysis buffer for 20 minutes. The dialysis set up was assembled according to the manufacturer's instruction. Each cell received 150 μL of plasma or brain homogenate spiked with 1 mM of compound, and dialyzed against an equal volume of dialysis buffer (PBS). The dialysis plate was sealed and incubated in an incubator at 37° C. with 5% CO2 at 100 rpm for 6 hours. At the end of incubation, compound concentration was measured in both chambers by LC-MS/MS on a Triple Quad™ 5500 from AB Inc after separation on a XSelect Hss T3.2.5μ (2.1×30 mm) column. Free fraction (Fu) was calculated as (Peak Area Ratio buffer chamber/Peak Area Ratio plasma chamber). Kpuu=(AUCtot,br×Fu,br)/([…])
The Kpu,u was then calculated upon correcting this kp value with mouse plasma protein binding and mouse brain homogenates binding.
A Kpu,u value >0.3 is considered brain penetrant, and a Kpu,u value ≤0.3 is not considered brain penetrant. When the Kpu,u value is not determined, the Kp value may be useful as a metric of potential brain penetrance if the Kp value is >0.3.

[3] = Solubility Protocol in Phosphate Buffered Saline (PBS); format: physicochemical; settings: for Sol (PBS) / solubility kinetic at 2 h: kinetic solubility, PBS pH 7.4, 2 hours at room temperature; for solubility at 2 h / solubility kinetic at 2 h: phosphate buffered saline (PBS), 18 °C, kinetic from dmso stock; for solubility at 2 h: pH 7.4, aqueous buffer; for solubility kinetic at 2 h: aqueous buffer
Description: (vi) Solubility Protocol in Phosphate Buffered Saline (PBS)
The kinetic solubility of test compounds and control compounds was measured in commercial phosphate buffered saline (PBS), pH 7.4 (Wisent, Canada).
Briefly, a stock solution (20 mM DMSO for controls, and 10 mM DMSO for test compounds) was combined with PBS buffer to reach a targeted concentration of 400 μM for controls and 200 μM for test compounds. The spiked-PBS mixtures were then agitated on a VX-2500 multi-tube vortexer (VWR) for 2 hours at room temperature (18° C.). Following agitation, the samples were filtered on a glass fiber filter (1 μm) and the eluates were diluted 400-fold with a mixture of acetonitrile:water (1:1). Solubility determination was then performed against one standard sample prepared in high organic content at the expected top concentration. The lower limit of quantification was arbitrarily set at 1 μM (400-fold dilution of the top concentration) for assay controls, and 0.5 μM for test compounds. On each experimental run, nicardipine and imipramine were assessed as reference compounds for low and high solubility, respectively. All samples were assessed in triplicate and analyzed by LC-MS/MS (using a CTC PAL autosampler, Thermo Accela UPLC, and a Thermo Quantum mass spectrometer) using electrospray ionization against standards prepared in the same matrix

[4] = Human Hepatocyte Stability Assay; format: in vitro ADME; settings: human hepatocytes, 37° C.; read-out: Hep (human) (t½ min)
Description: as §1, §2, §3

[5] = CDI, mouse, brain (whole brain homogenate) relative to plasma, oral, 20 mpk, brain levels, mice
[6] = CDI, mouse, brain (whole brain homogenate) relative to plasma, oral, 20 mpk, brain levels, unbound, mice, read-out: Kpu,u
[7] = CDI, mouse, brain (whole brain homogenate) relative to plasma, po, 20 mg/kg, Kp corrected with mouse plasma protein binding and mouse brain homogenates binding, 20 mpk PO, read-out: Kpu,u
[8] = CDI, mouse, brain (whole brain homogenate) relative to plasma, po, 20 mg/kg

T1 sequence (Q96P20 whole entry): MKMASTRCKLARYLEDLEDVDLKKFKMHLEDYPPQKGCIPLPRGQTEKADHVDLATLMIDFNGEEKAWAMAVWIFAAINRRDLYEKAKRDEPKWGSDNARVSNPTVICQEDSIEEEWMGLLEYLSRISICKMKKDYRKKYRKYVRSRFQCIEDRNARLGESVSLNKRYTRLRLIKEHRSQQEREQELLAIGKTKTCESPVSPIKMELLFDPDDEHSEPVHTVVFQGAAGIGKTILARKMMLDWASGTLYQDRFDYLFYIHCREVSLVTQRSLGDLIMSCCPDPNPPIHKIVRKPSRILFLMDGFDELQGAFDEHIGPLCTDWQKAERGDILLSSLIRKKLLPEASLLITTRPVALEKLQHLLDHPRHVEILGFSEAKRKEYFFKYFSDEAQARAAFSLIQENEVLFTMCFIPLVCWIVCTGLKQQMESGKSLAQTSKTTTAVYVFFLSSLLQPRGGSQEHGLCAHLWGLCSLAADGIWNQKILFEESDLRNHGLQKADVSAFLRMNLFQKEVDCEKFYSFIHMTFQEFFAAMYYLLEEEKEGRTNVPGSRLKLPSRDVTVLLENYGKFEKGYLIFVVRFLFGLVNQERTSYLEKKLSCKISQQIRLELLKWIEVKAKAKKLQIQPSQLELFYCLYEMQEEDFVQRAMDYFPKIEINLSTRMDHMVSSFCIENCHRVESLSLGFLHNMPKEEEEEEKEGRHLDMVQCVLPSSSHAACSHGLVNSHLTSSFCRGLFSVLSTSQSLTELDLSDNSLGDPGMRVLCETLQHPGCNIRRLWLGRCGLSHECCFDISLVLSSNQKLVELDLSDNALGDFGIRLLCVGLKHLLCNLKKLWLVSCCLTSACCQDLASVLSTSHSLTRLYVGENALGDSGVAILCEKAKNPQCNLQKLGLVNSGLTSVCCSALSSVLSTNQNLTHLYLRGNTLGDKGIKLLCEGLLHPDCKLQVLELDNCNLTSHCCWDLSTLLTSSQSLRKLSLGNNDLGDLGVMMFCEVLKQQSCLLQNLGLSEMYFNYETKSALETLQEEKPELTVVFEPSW

SMILES | half-life [1] [h] | IC50 (human NLRP3) [µM] | Kp [2, 5] | Kpu,u [2, 6] | Kpu,u [2, 7] | Kp at 24 h [2, 8] | Sol (PBS) [3] [µM] | solubility at 2 h [3] [µM] | half-life [4] [h] | solubility kinetic at 2 h [3] [µM] | Kpu,u ([2]; brain levels, unbound, mice)
Oc1cc(Cl)ccc1-c1nnc(N[C@H]2[C@@H]3CC[C@H]2COC3)c2cnccc12 [Compound 5A, 2-(4-(((1R,5S,8s)-3-oxabicyclo[3.2.1]octan-8-yl)amino)pyrido[3,4-d]pyridazin-1-yl)-5-chlorophenol] | 2.67 | 0.15 | 0.87 | 0.44 | 0.44 | 0.87 | 25 | 25 (≈ 9.57 µg/mL) | > 4 | – | –
Oc1cc(C(F)F)ccc1-c1nnc(N[C@H]2C[C@H]3CC[C@@H](C2)O3)c2cnccc12 [Compound 11A*-r, 2-(4-(((1R,3r,5S)-8-oxabicyclo[3.2.1]octan-3-yl)amino)pyrido[3,4-d]pyridazin-1-yl)-5-(difluoromethyl)phenol] | 3.83 | 0.81 | – | – | 0.06 | 0.08 | 0.7 | – | > 4 | 0.7 (≈ 0.279 µg/mL) | –
Oc1cc(C(F)(F)F)ccc1-c1nnc(N[C@@H]2C[C@@H]3CC[C@H]2O3)c2cnccc12 (single isomer, unassigned) [Compound 10A*] | 1.83 | 0.92 | 0.46 | – | 0.49 | 0.46 | 2.1 | 2.1 (≈ 0.845 µg/mL) | 3.17 | – | 0.49
Cc1ccc(-c2nnc(N[C@H]3C[C@H]4CC[C@@H](C3)O4)c3cnccc23)c(O)c1 [Compound 2A*-r, 2-(4-(((1R,3r,5S)-8-oxabicyclo[3.2.1]octan-3-yl)amino)pyrido[3,4-d]pyridazin-1-yl)-5-methylphenol] | 1.18 | 0.33 | 0.27 | 0.16 | 0.16 | 0.27 | 1.9 | 1.9 (≈ 0.689 µg/mL) | > 8 | – | –
Oc1cc(C(F)F)ccc1-c1nnc(N[C@H]2[C@@H]3CC[C@H]2COC3)c2cnccc12 [Compound 14A, 2-(4-(((1R,5S,8s)-3-oxabicyclo[3.2.1]octan-8-yl)amino)pyrido[3,4-d]pyridazin-1-yl)-5-(difluoromethyl)phenol] | 2 | 0.2 | – | – | 0.2 | 0.37 | 11 | – | > 8 | 11 (≈ 4.38 µg/mL) | –
Oc1cc(Cl)ccc1-c1nnc(N[C@@H]2C[C@@H]3CC[C@H]2O3)c2cnccc12 (single isomer, unassigned) [Compound 3A*] | 2.17 | 1.16 | 0.3 | – | 0.15 | 0.3 | – | > 300 | > 4 | > 300 | 0.15 —
Cc1ccc(-c2nnc(N[C@H]3[C@@H]4CC[C@H]3COC4)c3cnccc23)c(O)c1 [Compound 6A, 2-(4-(((1R,5S,8s)-3-oxabicyclo[3.2.1]octan-8-yl)amino)pyrido[3,4-d]pyridazin-1-yl)-5-methylphenol] | 2.67 | 0.2 | – | – | 0.51 | 0.76 | >300 | – | > 4 | > 300 | –
Oc1cc(C(F)(F)F)ccc1-c1nnc(N[C@H]2C[C@H]3CC[C@@H](C2)O3)c2cnccc12 [Compound 4A*-r, 2-(4-(((1R,3r,5S)-8-oxabicyclo[3.2.1]octan-3-yl)amino)pyrido[3,4-d]pyridazin-1-yl)-5-(trifluoromethyl)phenol] | 3.33 | 1.1 | 0.13 | 0.09 | 0.09 | 0.13 | 2.4 | 2.4 (≈ 0.999 µg/mL) | > 8 | – | –
Oc1cc(C(F)(F)F)ccc1-c1nnc(N[C@H]2[C@@H]3CC[C@H]2COC3)c2cnccc12 [Compound 13A, 2-(4-(((1R,5S,8s)-3-oxabicyclo[3.2.1]octan-8-yl)amino)pyrido[3,4-d]pyridazin-1-yl)-5-(trifluoromethyl)phenol] | 1.67 | 0.34 | – | – | 0.08 | 0.1 | 1.4 | – | 4.83 | 1.4 (≈ 0.583 µg/mL) | –
Cc1ccc(-c2nnc(N[C@H]3[C@@H]4CC[C@H]3COC4)c3cnccc23)c(O)c1F [Compound 15A, 6-(4-(((1R,5S,8s)-3-oxabicyclo[3.2.1]octan-8-yl)amino)pyrido[3,4-d]pyridazin-1-yl)-2-fluoro-3-methylphenol] | 0.483 | 0.34 | – | – | 0.45 | 0.41 | >300 | – | > 8 | > 300 | –
